Reference: patent publication US20260085076A1, “CRYSTAL FORM OF AROMATIC HETEROCYCLIC COMPOUND, COMPOSITION THEREOF, PRODUCTION METHOD THEREOF AND USES THEREOF” (Hangzhou Yuhong Pharmaceutical Technology Co., Ltd., priority 2023, published 2026)
pIC50: −log10 of the molar value. Values after ≈ are worked out from the molar mass of the structure shown. “Also recorded” adds a separate entry of the source.

What was measured:
[1] = Crystal competition experiment in anhydrous ethanol; format: physicochemical; settings: mixture of forms I-IX suspended in anhydrous ethanol, room temperature, 4 days, XRD
Method: 2 mg each of the aromatic heterocyclic compound of crystal form I, crystal form II, crystal form III, crystal form IV, crystal form V, crystal form VI, crystal form VII, crystal form VIII and crystal form IX was added to 3 ml of anhydrous ethanol to form a suspension.

[2] = Stability test of crystal form (long-term, accelerated); format: physicochemical
Method: (§1) Samples of crystal form I produced in Example 15 were taken, which were 15 samples of 50 mg each, and sealed with aluminum foil bags. The crystal stability of the above samples were studied under high temperature (60±2° C.), high humidity (RH90%±5%), long-term test (25° C.±2° C., RH 60%±5%) and accelerated test (40° C.±2° C., RH 75%±5%) conditions. […] The long-term and accelerated 3-month crystal form is stable.

[3] = DVS and isotherm curves, moisture absorption; format: physicochemical
[4] = Influencing factors test of crystal form (high temperature, high humidity); format: physicochemical
Method: as §1

[5] = Solubility at different pH values; format: physicochemical; settings: thermodynamic from solid
Method: Excess samples of crystal form I were respectively added to 10 mL of solutions with different pH value. After being shaken for 24 hours by a constant temperature shaker at 32° C. at 100 rpm, the saturated solutions (with undissolved solids at the bottom) were centrifuged and filtered, then determined linear solutions (formulated with reference substances) with different concentrations and saturated solutions with different pH values under the content item. The solubility of the samples at different pH values were calculated using the standard curve as follows, see FIG. 75 for details.

[6] = Crystal competition experiment in water; format: physicochemical; settings: mixture of forms I-IX suspended in water, room temperature, 4 and 7 days, XRD
[7] = Hot stage XRPD, crystal transformation on heating; format: physicochemical
[8] = tested on: p-STAT5 under IL-15 stimulation in PBMC (JAK-STAT pathway); experiment: p-STAT5 ELISA in IL-15 stimulated hPBMC cells; format: cell-based, human; settings: 45 min compound, 30 min IL-15, ELISA
Method: Based on the mechanism of JAK-STAT pathway, the effect of the compounds on the JAK-STAT pathway were evaluated by using cytokine IL-15 to stimulate hPBMC cells, and using the downstream STAT5 phosphorylation level as the detection index.
1. PBMC cell counting plate: 90 μL PBMC was seeded in a 96-well plate (PBMC cell density 80,000/well).
2. Treatment with test compounds: After cells being seeded, drug treatment was carried out immediately. The drugs to be tested at 5 μL/well (final concentrations 1, 0.5, 0.1, 0.05, 0.01, and 0.005 μM) were incubated at 37° C. for 45 min.
3. Cytokine IL-15 stimulation: The cells were stimulated by 5 μL IL-15, and incubated at 37° C. for 30 min.
4. Protein sample collection: The cells were collected in a centrifuge tube and centrifuged for 5 minutes. The supernatant was discarded and cells were lysed with 1× Cell Extraction Buffer PTR.
5. p-STAT5 detection: Perform detection according to the requirements of the ELISA kit.
Experimental results: IC50 values of compounds on p-STAT5 under IL-15 stimulation in PBMC

[9] = tested on: collagen-induced arthritis model in mice; experiment: Collagen-induced arthritis model in mice (mCIA); format: in vivo, DBA/1J mice; settings: 50 mg/kg once a day, FIG. 77
Method: 1. Construction of collagen-induced arthritis model in mice (mCIA) Experimental purpose: To test the immunosuppressive activity of YZ001052 in the mCIA model. PF-06651600 was used as a positive control compound.
Complete and incomplete Freund's adjuvants with chicken type II collagen solution were mixed in equal proportions to form emulsions. Except for the blank control group, a mixture of complete Freund's adjuvant and chicken type II collagen solution was injected subcutaneously into the base of the tail and thigh of mice on Day 0. Each mouse was injected subcutaneously with 100 μL at the base of the tail, and injected 50 μL subcutaneously at the base of both thighs (primary immunization). On day 21, mice were injected subcutaneously with 200 μL of a mixture of incomplete Freund's adjuvant and chicken type II collagen as a booster injection (second immunization). Arthritis was considered to occur if the clinical score of at least one limb was >2 points. Paw thickness measurement: Using a vernier caliper to measure the thickness of the left and right hind feet of the mouse and record it, which is the degree of paw swelling. The detection frequency was once every 3 days.

[10] = tested on: SRBC mouse model; experiment: SRBC-induced delayed-type hypersensitivity (DTH) in mice; format: in vivo, Balb/c mice; settings: 100 mg/kg gavage once a day, day 0 to day 6, FIG. 76
Method: Drug formulation: The compound was added to 0.5% CMC-Na solution to formulate a drug suspension (dosage is 10 mg/mL).
Induction and administration of delayed-type hypersensitivity (DTH): 30 male Balb/c mice were weighed and randomly divided into 6 groups according to body weight, with 5 mice in each group. The experimental period lasted for 7 days. On day 0, mice were sensitized by subcutaneous injection of sheep red blood cells (SRBC). The mice were performed gavage administration at 100 mg/kg (once a day) from day 0 to day 6. On day 6, the mice were injected SRBC into the right hind foot pad for challenge. Measurements were taken on the 7th day of the experiment, and the experiment was concluded.
Pharmacodynamic detection indicators of disease models: the detection and observation indicators are the redness and swelling degree and thickness of the paw pads of SRBC-induced mice. The thickness of the right paw was measured on day 6 before the SRBC injection challenge as the baseline. The thickness of the right paw was measured again at the end of the experiment, the difference in paw thickness before and after the second injection was calculated.
Statistical analysis: The experimental data were expressed as mean±standard deviation (Mean±SD). All data were statistically analyzed using T-test, with P<0.05 considered statistically significant.

## C=CC(=O)N1CCc2c(c(-c3ccnc4[nH]ccc34)nn2C)C1 [crystal form I, 1-(1-methyl-3-(1H-pyrrolo[2,3-b]pyridin-4-yl)-1,4,6,7-tetrahydro-5H-pyrazolo[4,3-c]pyridin-5-yl)prop-2-en-1-one]
[1]
  crystal stability in ethanol: good crystal stability in the presence of ethanol
[2]; 0 days
  Crystal form test result: form I
[2]; accelerated 40° C. ± 2° C., RH 75% ± 5%, 1 month
  Crystal form test result: form I
[2]; accelerated 40° C. ± 2° C., RH 75% ± 5%, 3 month
  Crystal form test result: stable; also recorded: form I
[2]; long-term 25° C. ± 2° C., RH 60% ± 5%, 1 month
  Crystal form test result: form I
[2]; long-term 25° C. ± 2° C., RH 60% ± 5%, 3 month
  Crystal form test result: stable; also recorded: form I
[3]
  moisture absorption rate: about 2.4%
[4]; 0 days
  Crystal form test result: form I
[4]; high humidity RH90% ± 5%, 5 days
  Crystal form test result: form I
[4]; high humidity RH90% ± 5%, 15 days
  Crystal form test result: stable; also recorded: form I
[4]; high temperature 60 ± 2° C., 5 days
  Crystal form test result: form I
[4]; high temperature 60 ± 2° C., 15 days
  Crystal form test result: stable; also recorded: form I
[5]; aqueous solution of pH 1.0, simulated gastric fluid, pH 1.0, 32° C.
  solubility at 24 h: 14500 µg/mL (≈ 47300 µM)
[5]; aqueous solution of pH 2.0, simulated gastric fluid, pH 2.0, 32° C.
  solubility at 24 h: 2740 µg/mL (≈ 8900 µM)
[5]; aqueous solution of pH 3.8, aqueous buffer, pH 3.8, 32° C.
  solubility at 24 h: 118 µg/mL (≈ 385 µM)
[5]; aqueous solution of pH 4.5, aqueous buffer, pH 4.5, 32° C.
  solubility at 24 h: 68.6 µg/mL (≈ 223 µM)
[5]; aqueous solution of pH 6.8, aqueous buffer, pH 6.8, 32° C.
  solubility at 24 h: 58.9 µg/mL (≈ 192 µM)
[5]; aqueous solution of pH 8.0, aqueous buffer, pH 8.0, 32° C.
  solubility at 24 h: 60.8 µg/mL (≈ 198 µM)
[5]; water, 32° C.
  solubility at 24 h: 53.2 µg/mL (≈ 173 µM)
[6]
  crystal stability in water: good crystal stability in water

## C=CC(=O)N1CCc2c(c(-c3ccnc4[nH]ccc34)nn2C)C1 [crystal form III, 1-(1-methyl-3-(1H-pyrrolo[2,3-b]pyridin-4-yl)-1,4,6,7-tetrahydro-5H-pyrazolo[4,3-c]pyridin-5-yl)prop-2-en-1-one]
[3]
  moisture absorption rate: about 2.2%
[7]
  crystal transformation in hot stage XRPD: no crystal transformation at 140 °C
[6]
  crystal stability in water: good crystal stability in water

## C=CC(=O)N1C[C@H](Nc2ncnc3[nH]ccc23)CC[C@@H]1C [PF-06651600, reference compound]
[8]
  pIC50: 7.07
[9]; CIA mice
  paw swelling: improved to varying degrees
[9]; compared with the model group
  arthritis score: significantly decreased

## C=CC(=O)N1CCc2c(c(-c3ccnc4[nH]ccc34)nn2C)C1 [crystal form VIII, 1-(1-methyl-3-(1H-pyrrolo[2,3-b]pyridin-4-yl)-1,4,6,7-tetrahydro-5H-pyrazolo[4,3-c]pyridin-5-yl)prop-2-en-1-one]
[3]
  moisture absorption rate: about 1.3%
[7]
  crystal transformation in hot stage XRPD: most of the crystals were transformed into crystal form I at 150 °C

## C=CC(=O)N1Cc2c(-c3ccnc4[nH]ccc34)nn(C(C)C)c2C[C@H]1C [YZ001085]
[10]
  immunosuppressive effect on SRBC-induced delayed-type hypersensitivity (right paw thickness): significant immunosuppressive effects

## C=CC(=O)N1CCc2[nH]nc(-c3ccnc4[nH]ccc34)c2C1 [YZ001065]
[10]
  immunosuppressive effect on SRBC-induced delayed-type hypersensitivity (right paw thickness): significant immunosuppressive effects

## C=CC(=O)N1CCc2c(c(-c3ccnc4[nH]ccc34)nn2C)C1 [crystal form VI, 1-(1-methyl-3-(1H-pyrrolo[2,3-b]pyridin-4-yl)-1,4,6,7-tetrahydro-5H-pyrazolo[4,3-c]pyridin-5-yl)prop-2-en-1-one]
[7]
  crystal transformation in hot stage XRPD: transformed into crystal form I at 150 °C

## C=CC(=O)N1CCc2c(c(-c3ccnc4[nH]ccc34)nn2C)C1 [crystal form VII, 1-(1-methyl-3-(1H-pyrrolo[2,3-b]pyridin-4-yl)-1,4,6,7-tetrahydro-5H-pyrazolo[4,3-c]pyridin-5-yl)prop-2-en-1-one]
[3]
  moisture absorption rate: about 1.3%
[7]
  crystal transformation in hot stage XRPD: transformed to crystal form I at 150 °C

## C=CC(=O)N1CCc2c(c(-c3ccnc4[nH]ccc34)nn2C)C1 [crystal form II, 1-(1-methyl-3-(1H-pyrrolo[2,3-b]pyridin-4-yl)-1,4,6,7-tetrahydro-5H-pyrazolo[4,3-c]pyridin-5-yl)prop-2-en-1-one]
[3]
  moisture absorption rate: about 2.4%
[7]
  crystal transformation in hot stage XRPD: transformed into crystal form I at 150 °C

## C=CC(=O)N1CCc2c(c(-c3ccnc4[nH]ccc34)nn2C)C1 [crystal form IX, 1-(1-methyl-3-(1H-pyrrolo[2,3-b]pyridin-4-yl)-1,4,6,7-tetrahydro-5H-pyrazolo[4,3-c]pyridin-5-yl)prop-2-en-1-one]
[7]
  crystal transformation in hot stage XRPD: transformed into crystal form I at 155 °C

## C=C(F)C(=O)N1CCc2c(c(-c3ccnc4[nH]ccc34)nn2C)C1 [YZ001054]
[10]
  immunosuppressive effect on SRBC-induced delayed-type hypersensitivity (right paw thickness): significant immunosuppressive effects
